Measurements as given in article PMC10267570, “Characterization of the cholesterol biosynthetic pathway in Dioscorea transversa” (The Journal of Biological Chemistry, 2023).

Molecular target: T1, CYP51Dt (D. transversa sterol 14α-demethylase)
T1 construct: gene CYP51; C-terminal hexa-histidine tag
Test: UV–visible difference spectroscopy titration (type I spectrum) of purified P450; also turnover with CPRDt/NADPH by GC–MS
Type: binding, Dioscorea transversa

C=C(CC[C@@H](C)[C@H]1CC[C@@]2(C)C3=C(CC[C@]12C)[C@@]1(C)CC[C@H](O)[C@@H](C)[C@@H]1CC3)C(C)C [compound 7, obtusifoliol]
Kd: 0.8 ± 0.25 µM

CC(C)CCC[C@@H](C)[C@H]1CC[C@@]2(C)C3=C(CC[C@]12C)[C@@]1(C)CC[C@H](O)[C@@H](C)[C@@H]1CC3 [compound 19, 4-desmethyl-24,25-dihydrolanosterol]
Kd: 2.4 ± 0.18 µM
